The record followed here is paper PMC11984407, “A natural small molecule isoginkgetin alleviates hypercholesterolemia and atherosclerosis by targeting ACLY” (Theranostics, 2025).

Structures are written as SMILES.

For test [1], the system named is primary mouse hepatocytes. The test is described as follows: De novo lipogenesis in vitro, [1,2-14C]-acetate incorporation. The format is cell-based. Conditions: 2.5 μmol/L and 5 μmol/L, 4 h. How it is done: Hepatocytes were seeded in 6-well plates at a density of 6 x 10^5 cells per well. They were exposed to various compounds along with [1,2-^14C]-acetate (0.1 μCi per well) for specified durations. Following treatment, the cells underwent washing with cold PBS and were lysed in 0.4 to 0.6 mL of 0.5 M KOH. The saponification process at 95 °C for 3 h with 0.4 mL of KOH (in 20% methanol solution) enabled the separation of cholesterol and fatty acids. Cholesterol, being nonpolar, was extracted using 0.5 mL of petroleum ether in three separate instances. In comparison, polar fatty acids were extracted with 0.5 mL of petroleum ether after adding 0.2 mL of H2O and 0.4 mL of 5 M H2SO4 in three rounds. The petroleum ether extracts were left to air dry at room temperature overnight. The radioactivity of the resultant products was quantified using a liquid scintillation counter.

Test [2] relates to Ldlr-/- hamsters. Description: High cholesterol diet-fed Ldlr-/- hamsters. It counts as in vivo, hamster. How it is done:
Syrian golden hamsters with a deficiency in the low-density lipoprotein receptor (Ldlr) gene were generated using the clustered regularly interspaced short palindromic repeats (CRISPR) and CRISPR-associated protein 9 (Cas9) gene editing system, as previously described. Male Ldlr^-/- hamsters at 8-week-old were randomly divided into three groups. The animals were administered with vehicle, ISOGK (2 mg/kg/day), or ISOGK (5 mg/kg/day) for a period of four weeks. The hamsters were maintained on a 14-h light/10-h dark cycle at 24 °C and were fed a 1.25% high cholesterol diet. Unless otherwise stated, the hamsters were fasted for 12 h prior to euthanasia. All experiments were conducted in accordance with the principles of experimental animal care (NIH publication no. 85-23, revised 1996) and were approved by the Animal Care and Use Committee of Peking University (approval number LA2022-147).
Plasma levels of TC, TG, LDL-C, and high-density lipoprotein cholesterol (HDL-C) were determined following the manufacturer's instructions. Liver tissues (30-40 mg) were homogenized in 0.5 mL of cold PBS for hepatic TG and cholesterol measurement. A 0.4 mL homogenate was combined with 1.4 mL of a CHCl3/CH3OH mixture (2:1, v/v) and shaken overnight at room temperature. Following centrifugation at 2,500 × g for a period of 10 min, the organic phase was meticulously transferred and permitted to air-dry. The residual organic material was then reconstituted in 800 μL of ethanol containing 1% Triton X-100, whereby the ethanol served to solubilize the material.

The test system of test [3] is Apoe-/- mice. The test is described as follows: Liver Acly knockdown by GalNAc-siAcly in Apoe-/- mice. The format is in vivo, mouse. How it is done:
Conjugating siRNA with N-acetylgalactosamine (GalNAc) is a promising strategy for depleting target gene expression specifically in the liver. […] In this study, we employed GalNAc-siAcly to knock down Acly in the liver of Apoe^-/- mice that were fed high cholesterol diet for 15 weeks. ISOGK was administered starting from the 7th week for 8 additional weeks (Figure 7A). […] The qRT-PCR results also supported the same conclusion (Figure S7A).
Figure 7 The anti-atherosclerotic and lipid-lowering effects of isoginkgetin in Apoe^-/- mice were ACLY-dependent. (A) Scheme of study design. Briefly, male Apoe^-/- mice were induced by high cholesterol diet for 7 weeks and administrated GalNAc-siAcly (3 mg/kg/month). Animals then received ISOGK (20 mg/kg/day) treatment for another 8 weeks. (B) Immunoblotting analysis and quantification of ACLY protein in liver and kidney tissues from indicated groups (n = 3). One-way ANOVA followed by Bonferroni's post hoc test. (C) Representative images of Oil Red O staining of en face aortas from male Apoe^-/- mice fed high cholesterol diet. (D) Representative images of ORO staining of the aortic sinus from male Apoe^-/- mice fed high cholesterol diet. (E) Representative images of H&E staining of the aortic sinus from male Apoe^-/- mice fed High cholesterol diet. (F) Quantitative analysis of C-E (n = 6 - 8). One-way ANOVA followed by Bonferroni's post hoc test. (G) Plasma levels of TC, TG, LDL-C and HDL-C in the indicated groups (n = 6 - 8). One-way ANOVA followed by Bonferroni's post hoc test. The data are means ± SEM, n.s., not significant, *P < 0.05, **P < 0.01, ***P < 0.001, ****P < 0.0001.

As for `COc1ccc(-c2cc(=O)c3c(O)cc(O)c(-c4cc(-c5cc(=O)c6c(O)cc(O)cc6o5)ccc4OC)c3o2)cc1` [ISOGK, Isoginkgetin], in test [1], the “incorporation of [1,2-14C]-acetate into fatty acids and cholesterol” value is given as “inhibition of lipogenesis”. Also, in test [2], the “lipid accumulation in aortic sinus (Oil Red O)” value is “significantly reduced lipid accumulation” and the “lipid accumulation in liver tissues (Nile Red)” value is given as “significantly reduced lipid accumulation”. Besides, the “reduction in hepatic TC vs vehicle” value in test [2] (2 mg/kg/day i.p.) was 25.89%. Moreover, the “reduction in hepatic TC vs vehicle” value in test [2] (5 mg/kg/day i.p.) came out at 35.75%. Besides, in test [2] (high dose 5 mg/kg/day), the “decrease in serum TG levels (Figure 5B)” value was 61.32%, the “decrease in serum non-HDL-C” value came out at 51.76%, the “reduction in serum TC (Figure 5C)” value was 52.15% and the “reduction in serum TG (Figure 5C)” value was 51.38%. In addition, the “reduction of aortic plaque area (Oil Red O) vs vehicle” value in test [2] (high-dose 5 mg/kg/day) is listed as 29.85%. The “serum HDL-C levels” value in test [2] (low and high doses) is “without affecting HDL-C levels”. In test [2] (low dose 2 mg/kg/day), the “decrease in serum TG levels (Figure 5B)” value was 47.57%, the “decrease in serum non-HDL-C” value stood at 28.16%, the “reduction in serum TC (Figure 5C)” value was found to be 28.72% and the “reduction in serum TG (Figure 5C)” value is 47.99%. Moreover, the “reduction of aortic plaque area (Oil Red O) vs vehicle” value in test [2] (low-dose 2 mg/kg/day) turned out to be 21.74%. Further, in test [3] (Acly knockdown Apoe-/- mice), the “effect on atherosclerosis in aortic sinus” value is listed as “not observed” and the “lipid-lowering effect (plasma TC, TG, LDL-C, HDL-C)” value is listed as “not further observed”. The aortic plaque area entry in test [3] (Acly knockdown group (GalNAc-siAcly), 20 mg/kg/day) is listed as “not decreased further”. In addition, the “aortic sinus lesion areas and necrotic core area” value in test [3] (control Apoe-/- mice, 20 mg/kg/day) is given as “significantly reduced”. Besides, the “size of aortic plaques vs vehicle” value in test [3] (control Apoe-/- mice, 20 mg/kg/day, 8 weeks) is listed as “significantly lower”.
